test system: HBV DNA in HepG2.2.15 cells; test: HBV in vitro dot-blot hybridization test; assay type: cell-based, Hepatitis B virus; settings: Hepatitis B virus, HepG2.2.15, dot-blot hybridization assay, read-out: Concentration for 50% inhibition of HBV (EC50)value
Procedure, shortened: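 HepG2.2.15 cells (4×10^4/well) treated in duplicate with 6 five-fold compound dilutions (1% DMSO final), medium with compound renewed on day 5, cells harvested day 8-9. Intracellular HBV DNA quantified by dot-blot with DIG-labelled probe; % inhibition normalised to 1 μM GLS4 (100%) and DMSO (0%), EC50 fitted.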

Structure (SMILES) | EC50
COC(=O)C1=C2C[C@H](NS(=O)(=O)C(F)(F)F)CN2C(c2nccs2)=N[C@H]1c1ccc(F)cc1Cl [Example 155] | < 100 nM
COC(=O)C1=C2C[C@H](NS(=O)(=O)C3CC3)CN2C(c2nccs2)=N[C@H]1c1ccc(F)cc1Cl [Example 156] | < 100 nM
CCOC(=O)C1=C2C[C@H](N(C)S(C)(=O)=O)CN2C(c2nccs2)=N[C@H]1c1ccc(F)cc1Cl [Example 157] | < 100 nM
CCS(=O)(=O)N[C@H]1CC2=C(C(=O)OC)[C@H](c3ccc(F)cc3Cl)N=C(c3nccs3)N2C1 [Example 158] | < 100 nM
COC(=O)C1=C2C[C@H](NS(N)(=O)=O)CN2C(c2nccs2)=N[C@H]1c1ccc(F)cc1Cl [Example 159] | < 100 nM
CNS(=O)(=O)N[C@H]1CC2=C(C(=O)OC)[C@H](c3ccc(F)cc3Cl)N=C(c3nccs3)N2C1 [Example 160] | < 100 nM
COC(=O)C1=C2C[C@H](NS(=O)(=O)CCO)CN2C(c2nccs2)=N[C@H]1c1ccc(F)cc1Cl [Example 161] | < 100 nM
COC(=O)C1=C2C[C@H](NC(C)=O)CN2C(c2nccs2)=N[C@H]1c1ccc(F)cc1Cl [Example 162] | 100 to 500 nM
COC(=O)N[C@H]1CC2=C(C(=O)OC)[C@H](c3ccc(F)cc3Cl)N=C(c3nccs3)N2C1 [Example 163] | < 100 nM
COC(=O)C1=C2C[C@H](NS(C)(=O)=O)CN2C(c2nccs2)=N[C@H]1c1ccc(F)c(Cl)c1 [Example 164] | 1000 to 5000 nM
COC(=O)C1=C2C[C@H](NS(C)(=O)=O)CN2C(c2nccs2)=N[C@H]1c1cccc(F)c1Cl [Example 165] | < 100 nM

same assay, conditions: Hepatitis B virus, HepG2.2.15, summary list of target compounds, Examples 1-165 (same as Table 2), read-out: BIOACTIVITY (inhibitory actions on HBV DNA, EC50)

Structure (SMILES) | EC50
COC(=O)C1=C2C[C@H](NS(=O)(=O)C(F)(F)F)CN2C(c2nccs2)=N[C@H]1c1ccc(F)cc1Cl [Example 155] | < 100 nM
COC(=O)C1=C2C[C@H](NS(=O)(=O)C3CC3)CN2C(c2nccs2)=N[C@H]1c1ccc(F)cc1Cl [Example 156] | < 100 nM
CCOC(=O)C1=C2C[C@H](N(C)S(C)(=O)=O)CN2C(c2nccs2)=N[C@H]1c1ccc(F)cc1Cl [Example 157] | < 100 nM
CCS(=O)(=O)N[C@H]1CC2=C(C(=O)OC)[C@H](c3ccc(F)cc3Cl)N=C(c3nccs3)N2C1 [Example 158] | < 100 nM
COC(=O)C1=C2C[C@H](NS(N)(=O)=O)CN2C(c2nccs2)=N[C@H]1c1ccc(F)cc1Cl [Example 159] | < 100 nM
CNS(=O)(=O)N[C@H]1CC2=C(C(=O)OC)[C@H](c3ccc(F)cc3Cl)N=C(c3nccs3)N2C1 [Example 160] | < 100 nM
COC(=O)C1=C2C[C@H](NS(=O)(=O)CCO)CN2C(c2nccs2)=N[C@H]1c1ccc(F)cc1Cl [Example 161] | < 100 nM
COC(=O)C1=C2C[C@H](NC(C)=O)CN2C(c2nccs2)=N[C@H]1c1ccc(F)cc1Cl [Example 162] | 100 to 500 nM
COC(=O)N[C@H]1CC2=C(C(=O)OC)[C@H](c3ccc(F)cc3Cl)N=C(c3nccs3)N2C1 [Example 163] | < 100 nM
COC(=O)C1=C2C[C@H](NS(C)(=O)=O)CN2C(c2nccs2)=N[C@H]1c1ccc(F)c(Cl)c1 [Example 164] | 1000 to 5000 nM
COC(=O)C1=C2C[C@H](NS(C)(=O)=O)CN2C(c2nccs2)=N[C@H]1c1cccc(F)c1Cl [Example 165] | < 100 nM

test system: HBV DNA in HepG2.2.15 cells; test: HBV in vitro assay quantitive qPCR test; assay type: cell-based; settings: Hepatitis B virus, HepG2.2.15, read-out: BIOACTIVITY (inhibitory actions on HBV DNA, EC50)
Experimental: • 1 Purpose of the test: • The content of HBV DNA in HepG2.2.15 cells was detected by real time quantitive qPCR test to evaluate an inhibitory action of the compound on HBV with an EC50 value of the compound as an indicator. • 2 Experimental materials: • 2.1 Cell lines: HepG2.2.15 Cells • HepG2.2.15 cell culture media (DMEM/F12, Invitrogen-11330057; 10% serum, Invitrogen-10099141; 100 units/ml Penicillin and 10 μg/ml Streptomycin, Invitrogen-15140122; 1% non-essential amino acid, Invitrogen-1140076; 2 mM L-GLUTAMINE, Invitrogen-25030081; 300 μg/ml Geneticin, Invitrogen-10131027 • 2.2 Reagents: • trypsin (Invitrogen-25300062) • DPBS (Hyclone-SH30028.01B) • DMSO (Sigma-D2650-100ML) • High-Throughput DNA Purification Kit (QIAamp 96 DNA Blood Kit, Qiagen-51162) • Quantitative Fast Start Universal Probe Reagent (FastStart Universal Probe Master, Roche-04914058001) • 2.3 Materials and Instruments: • 96-well cell culture plate (Corning-3599) • CO2 Incubator (HERA-CELL-240) • Optical Sealing Membrane (ABI-4311971) • Quantitative PCR 96-well Plate (Applied Biosystems-4306737) • Fluorescent Quantitative PCR Instrument (Applied Biosystems-7500 real time PCR system) • 3. Testing steps and Methods: • 3.1 HepG2.2.15 cells (4×10^4 cells/well) were planted into a 96-well plate, and at 37° C., 5% CO2 cultured overnight. • 3.2 On Day 2, the compounds were diluted in totally 8 concentrations with a dilution gradient of three times. The compounds at different concentrations were added into the culture wells in duplicate. The final concentration of DMSO in the culture media was 1%. 1 μM GLS4 was used as 100% inhibition control; 1% DMSO as 0% inhibition control. • 3.3 On Day 5, replacing with the fresh culture media containing the compound was performed. • 3.4 On Day 8, the culture media in the culture wells was collected, and DNA was extracted with a High-Throughput DNA Purification Kit (Qiagen-51162), See Specification of the product for specific steps. • 3.5 Preparation of PCR Reaction Mixture was shown in Table 1:
• 3.6 To each well of a 96-well PCR plate was added 15 μl reaction mixture, and then to each well was added 10 μl sample DNA or HBV DNA standard. • 3.7 The reaction conditions of PCR were: heating at 95° C. for 10 minutes; then at 95° C. denaturing for 15 seconds, and at 60° C. extending for 1 minute, totally 40 cycles. • 3.8 Data Analysis: • 3.8.1 The inhibition percentage was calculated: % Inh.=[1−(DNA copy number in sample−DNA copy number in 1 μM GLS4)/(DNA copy number in DMSO control−DNA copy number in 1 μM GLS4)]×100. • 3.8.2 Calculating EC50: the concentration of the compound for 50% inhibition of HBV (EC50) was calculated by using GraphPad Prism Software. • 4 Testing Results • The testing results were shown in Table 3: […]

Structure (SMILES) | EC50
CCOP(=O)(N[C@H]1CC2=C(C(=O)OC)[C@H](c3ccc(F)cc3Cl)N=C(c3nccs3)N2C1)OCC [Example 174] | 100 to 500 nM

same assay, conditions: Hepatitis B virus, HepG2.2.15, read-out: Concentration for 50% inhibition of HBV (EC50)value

Structure (SMILES) | EC50
CCOP(=O)(N[C@H]1CC2=C(C(=O)OC)[C@H](c3ccc(F)cc3Cl)N=C(c3nccs3)N2C1)OCC [Example 174] | 100 to 500 nM

same assay, conditions: Hepatitis B virus; qPCR assay, HepG2.2.15 cells; read-out: Concentration for 50% inhibition of HBV (EC50)value

Structure (SMILES) | EC50
COC(=O)C1=C2C[C@H](NS(=O)(=O)CCN(C)C)CN2C(c2nccs2)=N[C@H]1c1ccc(F)cc1Cl [Example 166] | < 100 nM
COC(=O)C1=C2C[C@H](NS(C)(=O)=O)CN2C(c2nccs2)=N[C@H]1c1ccc(F)c(F)c1F [Example 167] | < 100 nM
COC(=O)C1=C2C[C@H](NS(C)(=O)=O)CN2C(c2nccs2)=N[C@@H]1c1ccc(F)c(F)c1F [Example 168] | 100 to 500 nM
COC(=O)C1=C2C[C@H](N(C)S(C)(=O)=O)CN2C(c2nccs2)=N[C@H]1c1ccc(F)cc1Cl [Example 169] | < 100 nM
COC(=O)C1=C2C[C@H](NS(=O)(=O)C(C)(C)C)CN2C(c2nccs2)=N[C@H]1c1ccc(F)cc1Cl [Example 170] | < 100 nM
COC(=O)C1=C2C[C@H](NS(=O)(=O)CCN)CN2C(c2nccs2)=N[C@H]1c1ccc(F)cc1Cl [Example 171] | < 100 nM
COC(=O)CS(=O)(=O)N[C@H]1CC2=C(C(=O)OC)[C@H](c3ccc(F)cc3Cl)N=C(c3nccs3)N2C1 [Example 172] | < 100 nM
COC(=O)C1=C2C[C@H](NC(=O)C3CC3)CN2C(c2nccs2)=N[C@H]1c1ccc(F)cc1Cl [Example 173] | < 100 nM

same assay, conditions: Hepatitis B virus; summary list of target compounds, Examples 166-220 (values of Table 3); HepG2.2.15 cells; read-out: BIOACTIVITY (inhibitory actions on HBV DNA, EC50)

Structure (SMILES) | EC50
COC(=O)C1=C2C[C@H](NS(=O)(=O)CCN(C)C)CN2C(c2nccs2)=N[C@H]1c1ccc(F)cc1Cl [Example 166] | < 100 nM
COC(=O)C1=C2C[C@H](NS(C)(=O)=O)CN2C(c2nccs2)=N[C@H]1c1ccc(F)c(F)c1F [Example 167] | < 100 nM
COC(=O)C1=C2C[C@H](NS(C)(=O)=O)CN2C(c2nccs2)=N[C@@H]1c1ccc(F)c(F)c1F [Example 168] | 100 to 500 nM
COC(=O)C1=C2C[C@H](N(C)S(C)(=O)=O)CN2C(c2nccs2)=N[C@H]1c1ccc(F)cc1Cl [Example 169] | < 100 nM
COC(=O)C1=C2C[C@H](NS(=O)(=O)C(C)(C)C)CN2C(c2nccs2)=N[C@H]1c1ccc(F)cc1Cl [Example 170] | < 100 nM
COC(=O)C1=C2C[C@H](NS(=O)(=O)CCN)CN2C(c2nccs2)=N[C@H]1c1ccc(F)cc1Cl [Example 171] | < 100 nM
COC(=O)CS(=O)(=O)N[C@H]1CC2=C(C(=O)OC)[C@H](c3ccc(F)cc3Cl)N=C(c3nccs3)N2C1 [Example 172] | < 100 nM
COC(=O)C1=C2C[C@H](NC(=O)C3CC3)CN2C(c2nccs2)=N[C@H]1c1ccc(F)cc1Cl [Example 173] | < 100 nM

From patent US9938301B2, “Dihydropyrimido fused ring derivative as HBV inhibitor” (QILU PHARMACEUTICAL CO., LTD., priority 2014, dated 2018)
